Measured values as given in patent publication US20170129916A1, “NOVEL BETULINIC PROLINE IMIDAZOLE DERIVATIVES AS HIV INHIBITORS” (HETERO RESEARCH FOUNDATION, priority 2014, published 2017).

Legend:
[1] = test system: HIV-1 strains, for e.g., 92HT599; assay: Antiviral activity: p24 estimation in MT-2 cells infected with HIV-1; format: cell-based; settings: Human immunodeficiency virus 1, MT2, MT-2 cells infected with HIV-1, p24, ~96 hours; for IC50: read-out: Antiviral activity IC50 (nM) Efficacy IC50
Experimental: MT-2 cells were infected with required number of TCID50's of HIV-1 strains, for e.g., 92HT599. The infected cells were plated at the concentration of 30, 000 cells per well in a 96 well plate. Test compound was added to the 96 well plate with the final concentration of DMSO (vehicle—not more than 1%). The plates are then incubated in a CO2 incubator for ˜96 hours (˜4 days) for viral infection. At the end of incubation period an aliquot from each well was taken for p24 estimation. The quantitation of p24 is an estimated index for antiviral activity of the compound. Percent inhibition was calculated with reference to control values (vehicle controls).
p-24 estimation was carried out using Advance biosciences kit as per the procedure detailed by supplier.

[2] = Single dose oral pharmacokinetic study; format: in vivo; settings: mouse, mice, 30 mg/kg, plasma; for AUC(0-t): read-out: Mice oral PK @30 mg/kg AUC 0-t; for Cmax: read-out: Mice oral PK @30 mg/kg Cmax
Experimental: The test item was administered through oral route to animals (rat/mice) at 30 mg/kg dose in a suitable vehicle at 10 ml/kg dose volume. Blood samples (˜50 uL at each time point) were collected from retro-orbital plexus using K3 EDTA as anticoagulant in eppend; orf tubes at defined time intervals under light ether anesthesia. The samples were centrifuged at 3500×g to separate plasma and stored at −80° C. until analysis.
Sample analysis: Test samples were analyzed using LC-MS-MS after developing fit-for-purpose method for each of test compound.

| SMILES | IC50 [1] [nM] | AUC(0-t) [2] [µg·h/mL] | Cmax [2] [ng/mL] | inhibition at 0.1 µM [1] [%] | inhibition at 1 µM [1] [%] |
| --- | --- | --- | --- | --- | --- |
| C=C(C)[C@@H]1CC[C@]2(C(=O)N3CCC[C@H]3c3ncc(-c4ccccn4)[nH]3)CC[C@]3(C)[C@H](CC[C@@H]4[C@@]5(C)CC[C@H](OC(=O)[C@H]6C[C@@H](C(=O)O)C6(C)C)C(C)(C)[C@@H]5CC[C@]43C)[C@@H]12 [Compound 1, (1R,3S)-2,2-dimethyl-3-((((1R,3aS,5aR,5bR,7aR,9S,11aR,11bR,13aR,13bR)-5a,5b,8,8,11a-pentamethyl-1-(prop-1-en-2-yl)-3a-((S)-2-(5-(pyridin-2-yl)-1H-imidazol-2-yl)pyrrolidine-1-carbonyl)icosahydro-1H-cyclopenta[a]chrysen-9-yl)oxy)carbonyl)cyclobutane-1-carboxylic acid] | 8.06 | 177 | 6290 | – | – |
| C=C(C)[C@@H]1CC[C@]2(C(=O)N3CCC[C@H]3c3ncc(-c4cccc(F)c4)[nH]3)CC[C@]3(C)[C@H](CC[C@@H]4[C@@]5(C)CC[C@H](OC(=O)[C@H]6C[C@@H](C(=O)O)C6(C)C)C(C)(C)[C@@H]5CC[C@]43C)[C@@H]12 [Compound 4, (1R,3S)-3-((((1R,3aS,5aR,5bR,7aR,9S,11aR,11bR,13aR,13bR)-3a-((S)-2-(5-(3-fluorophenyl)-1H-imidazol-2-yl)pyrrolidine-1-carbonyl)-5a,5b,8,8,11a-pentamethyl-1-(prop-1-en-2-yl)icosahydro-1H-cyclopenta[a]chrysen-9-yl)oxy)carbonyl)-2,2-dimethylcyclobutane-1-carboxylic acid] | 1.67 | 398 | 14800 | – | – |
| C=C(C)[C@@H]1CC[C@]2(C(=O)N3C[C@H](OCCOC)C[C@H]3c3nc(-c4ccc(F)cc4)c[nH]3)CC[C@]3(C)[C@H](CC[C@@H]4[C@@]5(C)CC[C@H](OC(=O)[C@H]6C[C@@H](C(=O)O)C6(C)C)C(C)(C)[C@@H]5CC[C@]43C)[C@@H]12 [Compound 9, (1R,3S)-3-((((1R,3aS,5aR,5bR,7aR,9S,11aR,11bR,13aR,13bR)-3a-((2S,4R)-2-(4-(4-fluorophenyl)-1H-imidazol-2-yl)-4-(2-methoxyethoxy)pyrrolidine-1-carbonyl)-5a,5b,8,8,11a-pentamethyl-1-(prop-1-en-2-yl)icosahydro-1H-cyclopenta[a]chrysen-9-yl)oxy)carbonyl)-2,2-dimethylcyclobutane-1-carboxylic acid] | 5.52 | – | – | – | – |
| C=C(C)[C@@H]1CC[C@]2(C(=O)N3CCC[C@H]3c3nc(-c4ccccc4)c(C)[nH]3)CC[C@]3(C)[C@H](CC[C@@H]4[C@@]5(C)CC[C@H](OC(=O)[C@H]6C[C@@H](C(=O)O)C6(C)C)C(C)(C)[C@@H]5CC[C@]43C)[C@@H]12 [Compound 13, (1R,3S)-2,2-dimethyl-3-((((1R,3aS,5aR,5bR,7aR,9S,11aR,11bR,13aR,13bR)-5a,5b,8,8,11a-pentamethyl-3a-((S)-2-(5-methyl-4-phenyl-1H-imidazol-2-yl)pyrrolidine-1-carbonyl)-1-(prop-1-en-2-yl)icosahydro-1H-cyclopenta[a]chrysen-9-yl)oxy)carbonyl)cyclobutane-1-carboxylic acid] | 4.9 | – | – | – | – |
| C=C(C)[C@@H]1CC[C@]2(C(=O)N3CCC[C@H](c4ncc(-c5ccccc5)[nH]4)C3)CC[C@]3(C)[C@H](CC[C@@H]4[C@@]5(C)CC[C@H](OC(=O)[C@H]6C[C@@H](C(=O)O)C6(C)C)C(C)(C)[C@@H]5CC[C@]43C)[C@@H]12 [Compound 20, (1R,3S)-2,2-dimethyl-3-((((1R,3aS,5aR,5bR,7aR,9S,11aR,11bR,13aR,13bR)-5a,5b,8,8,11a-pentamethyl-3a-((S)-3-(5-phenyl-1H-imidazol-2-yl)piperidine-1-carbonyl)-1-(prop-1-en-2-yl)icosahydro-1H-cyclopenta[a]chrysen-9-yl)oxy)carbonyl)cyclobutane-1-carboxylic acid] | 58.4 | – | – | – | – |
| C=C(C)[C@@H]1CC[C@]2(C(=O)N3CCC[C@H]3c3ncc(-c4ccccc4)[nH]3)CC[C@]3(C)[C@H](CC[C@@H]4[C@@]5(C)CC[C@H](OC(=O)C6C(C(=O)O)C6(C)C)C(C)(C)[C@@H]5CC[C@]43C)[C@@H]12 (stereo partly drawn) [Compound 22, 2,2-di methyl-3-((((1R,3aS,5aR,5bR,7aR,9S,11aR,11bR,13aR,13bR)-5a,5b,8,8,11a-pentamethyl-3a-((S)-2-(5-phenyl-1H-imidazol-2-yl)pyrrolidine-1-carbonyl)-1-(prop-1-en-2-yl)-icosahydro-1H-cyclopenta[a]chrysen-9-yl)oxy)carbonyl)cyclopropane-1-carboxylic acid] | 1000 | – | – | – | – |
| C=C(C)[C@@H]1CC[C@]2(C(=O)N3C[C@H](OC(C)C)C[C@H]3c3nc(-c4ccccc4)c[nH]3)CC[C@]3(C)[C@H](CC[C@@H]4[C@@]5(C)CC[C@H](OC(=O)[C@H]6C[C@@H](C(=O)O)C6(C)C)C(C)(C)[C@@H]5CC[C@]43C)[C@@H]12 [Compound 30, (1R,3S)-3-((((1R,3aS,5aR,5bR,7aR,9S,11aR,11bR,13aR,13bR)-3a-((2S,4R)-4-isopropoxy-2-(4-phenyl-1H-imidazol-2-yl)pyrrolidine-1-carbonyl)-5a,5b,8,8,11a-pentamethyl-1-(prop-1-en-2-yl)icosahydro-1H-cyclopenta[a]chrysen-9-yl)oxy)carbonyl)-2,2-dimethylcyclobutane-1-carboxylic acid] | 89.6 | – | – | 61 | 99 |
| C=C(C)[C@@H]1CC[C@]2(C(=O)N3C[C@H](OCCOC)C[C@H]3c3nc(-c4cccc(F)c4)c[nH]3)CC[C@]3(C)[C@H](CC[C@@H]4[C@@]5(C)CC[C@H](OC(=O)CC(C)(C)C(=O)O)C(C)(C)[C@@H]5CC[C@]43C)[C@@H]12 [Compound 44, 4-(((1R,3aS,5aR,5bR,7aR,9S,11aR,1bR,13aR,13bR)-3a-((2S,4R)-2-(4-(3-fluorophenyl)-1H-imidazol-2-yl)-4-(2-methoxyethoxy)pyrrolidine-1-carbonyl)-5a,5b,8,8,11a-pentamethyl-1-(prop-1-en-2-yl)icosahydro-1H-cyclopenta[a]chrysen-9-yl)oxy)-2,2-dimethyl-4-oxo butanoic acid] | 27.6 | – | – | – | – |
| CC1([C@@H]2CC[C@]3(C(=O)N4CCC[C@H]4c4nc5ccccc5[nH]4)CC[C@]4(C)[C@H](CC[C@@H]5[C@@]6(C)CC[C@H](OC(=O)[C@H]7C[C@@H](C(=O)O)C7(C)C)C(C)(C)[C@@H]6CC[C@]54C)[C@@H]23)CC1 [Compound 61, (1R,3S)-3-((((1R,3aS,5aR,5bR,7aR,9S,11aR,11bR,13aR,13bR)-3a-((S)-2-(1H-benzo[d]imidazol-2-yl)pyrrolidine-1-carbonyl)-5a,5b,8,8,11a-pentamethyl-1-(1-methylcyclopropyl)icosahydro-1H-cyclopenta[a]chrysen-9-yl)oxy)carbonyl)-2,2-dimethylcyclobutane-1-carboxylic acid] | 56.9 | – | – | 100 | 100 |
